Data taken from patent US8987195B2 (priority 2012, dated 2015).
Read-outs that look alike come from different tables or passages of the source.

Columns and labels:
[1] = tested on: HCV genotype 1b replicon; assay: HCV replicon assay, genotype 1b replicon EC50; format: cell-based, Hepatitis C virus; conditions: Hepatitis C virus, read-out: EC50 [gt-1b]
Summary of the method: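 Replicon cells (Neo^r, some luciferase:Neo^r fusion); G418 removed at plating; compound dilution series, 24-48 h. Readout: RNA by 32P-probe hybridization/protection or TaqMan, normalized to cyclophilin A RNA, or luciferase. EC50 vs DMSO control, 4-parameter fit.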

[2] = biological target: HCV NS3/4A protease genotype 1b (Hepatitis C virus genotype 1b, UniProt P26663); assay: HCV NS3/4A protease time-resolved fluorescence (TRF) assay, Ki against genotype 1b; format: biochemical
Summary of the method: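 First, protease (genotype 1b 0.2 nM, A156T 0.4 nM, genotype 3a 0.025 nM) is preincubated 30 min with inhibitor. Next, 25 nM TRF substrate starts the reaction, run 2.5 h at room temperature. Finally, europium fluorescence is read and Ki calculated from IC50.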

[3] = IC50 [gt-1b] (nM), NS3/4A genotype 1b, enzyme 0.2 nM

| Structure (SMILES) | EC50 ([1]; genotype 1b replicon) [nM] | IC50 [2, 3] [nM] | further results |
| --- | --- | --- | --- |
| CC(C)C1(OC(=O)N[C@H]2CCCCC/C=C\[C@@H]3C[C@@]3(C(=O)NS(=O)(=O)C3(C)CC3)NC(=O)[C@@H]3C[C@]4(CCc5c(c(C(F)(F)F)nc6ccccc56)O4)CN3C2=O)CC1 [Example 158, 1-(propan-2-yl)cyclopropyl [(2R,6S,12Z,13aS,14aR,16aS)-14a-{[(1-methylcyclopropyl)sulfonyl]carbamoyl}-5,16-dioxo-5′-(trifluoromethyl)-1,1′,2′,5,6,7,8,9,10,11,13a,14,14a,15,16,16a-hexadecahydrospiro[cyclopropa[e]pyrrolo[1,2-a][1,4]diazacyclopentadecine-2,3′-pyrano[2,3-c]quinolin]-6-yl]carbamate] | 1.17 | 0.02 |  |
| COc1ccc2nc(C(F)(F)F)c3c(c2c1)CC[C@]1(C[C@H]2C(=O)N[C@]4(C(=O)NS(=O)(=O)C5(C)CC5)C[C@H]4/C=C\CCCCC[C@H](NC(=O)OCC4(C)CC4)C(=O)N2C1)O3 [Example 498, (1-methylcyclopropyl)methyl [(2R,6S,12Z,13aS,14aR,16aS)-9′-methoxy-14a-{[(1-methylcyclopropyl)sulfonyl]carbamoyl}-5,16-dioxo-5′-(trifluoromethyl)-1,1′,2′,5,6,7,8,9,10,11,13a,14,14a,15,16,16a-hexadecahydrospiro[cyclopropa[e]pyrrolo[1,2-a][1,4]diazacyclopentadecine-2,3′-pyrano[2,3-c]quinolin]-6-yl]carbamate] |  |  | EC50 ([1]; HCV replicon, genotype 1b, K+ salt): 0.607 nM; IC50 ([2]; IC50 [gt-1b], NS3/4A protease TRF assay, genotype 1b enzyme 0.2 nM, K+ salt): 0.009 nM |
| COc1ccc2nc(C)c3c(c2c1)CC[C@]1(C[C@H]2C(=O)N[C@]4(C(=O)NS(=O)(=O)C5(C)CC5)C[C@H]4CCCCCCC[C@H](NC(=O)OC(C)(C)C)C(=O)N2C1)O3 [Example 34, tert-Butyl ((2R,6S,13aR,14aR,16aS)-9′-methoxy-5′-methyl-14a-(((1-methylcyclopropyl)sulfonyl)carbamoyl)-5,16-dioxo-1′,2′,3,5,6,7,8,9,10,11,12,13,13a,14,14a,15, 16,16a-octadecahydro-1H-spiro[cyclopropa[e]pyrrolo[1,2-a][1,4]diazacyclopentadecine-2,3′-pyrano[2,3-c]quinolin]-6-yl)carbamate] | 1.79 | 0.013 |  |
| CC(C)(C)OC(=O)N[C@H]1CCCCC/C=C\[C@@H]2C[C@@]2(C(=O)NS(=O)(=O)C2CC2)NC(=O)[C@@H]2C[C@]3(CCc4c(cnc5ccccc45)O3)CN2C1=O [Example 98, tert-butyl {(2R,6S,12Z,13aS,14aR,16aS)-14a-[(cyclopropylsulfonyl)carbamoyl]-5,16-dioxo-1,1′,2′,5,6,7,8,9,10,11,13a,14,14a,15,16,16a-hexadecahydrospiro[cyclopropa[e]pyrrolo[1,2-a][1,4]diazacyclopentadecine-2,3′-pyrano[2,3-c]quinolin]-6-yl}carbamate] | 9.72 | 0.057 |  |
| COc1ccc2nc(C)c3c(c2c1)C(F)(F)C[C@]1(C[C@H]2C(=O)N[C@]4(C(=O)NS(=O)(=O)C5(C)CC5)C[C@H]4/C=C\CCCCC[C@H](NC(=O)O[C@H](C)C(C)C)C(=O)N2C1)O3 [Example 263, (2R)-3-methylbutan-2-yl [(2S,6S,12Z,13aS,14aR,16aS)-1′,1′-difluoro-9′-methoxy-5′-methyl-14a-{[(1-methylcyclopropyl)sulfonyl]carbamoyl}-5,16-dioxo-1,1′,2′,5,6,7,8,9,10,11,13a,14,14a,15,16,16a-hexadecahydrospiro[cyclopropa[e]pyrrolo[1,2-a][1,4]diazacyclopentadecine-2,3′-pyrano[2,3-c]quinolin]-6-yl]carbamate] |  |  | EC50 ([1]; genotype 1b replicon, K+ salt): 5.3 nM; IC50 ([2]; IC50 [gt-1b] (nM), NS3/4A genotype 1b, enzyme 0.2 nM, K+ salt): 0.007 nM |
